In ChEMBL document CHEMBL3885881, “DrugMatrix”:

Species on record: Rattus norvegicus
Experiment: DrugMatrix - Regimen: Daily Repeat
Type: toxicity, organism-based, Sprague-Dawley
Parameters: regimen Daily Repeat, gender Male, age 6-8 weeks
Details: in vivo, po, 750 mg/kg, route oral GAVAGE, dose level High, vehicle .5 % CMC; for BASOPHIL / EOSINOPHIL / ERYTHROCYTE COUNT / HEMATOCRIT / HEMOGLOBIN / LEUKOCYTE COUNT / LYMPHOCYTE / MEAN CORPUSCULAR HEMOGLOBIN / MEAN CORPUSCULAR HEMOGLOBIN CONCENTRATION / MEAN CORPUSCULAR VOLUME / MONOCYTE / NEUTROPHIL / PLATELET COUNT: tissue Blood; for ALANINE AMINOTRANSFERASE / ALBUMIN / ALKALINE PHOSPHATASE / ASPARTATE AMINOTRANSFERASE / BLOOD UREA NITROGEN / CARBON DIOXIDE / CHLORIDE / CHOLESTEROL / CREATINE PHOSPHOKINASE / CREATININE / GLUCOSE / LACTATE DEHYDROGENASE / LIPASE / PHOSPHORUS / POTASSIUM / SODIUM / TOTAL BILIRUBIN / TOTAL PROTEIN / URIC ACID: tissue Plasma

ClC(Cl)(Cl)C(Cl)(Cl)Cl [HEXACHLOROETHANE]
BASOPHIL (96 h, time 4 day): 0.3% | EOSINOPHIL (96 h, time 4 day): 0.6% | ERYTHROCYTE COUNT (96 h, time 4 day): 7.16 x10E6/uL | HEMATOCRIT (96 h, time 4 day): 45.77% | HEMOGLOBIN (96 h, time 4 day): 14.9 G/DL | LEUKOCYTE COUNT (96 h, time 4 day): 12.35 x10E3/uL | LYMPHOCYTE (96 h, time 4 day): 79.87% | MEAN CORPUSCULAR HEMOGLOBIN (96 h, time 4 day): 20.77 pg | MEAN CORPUSCULAR HEMOGLOBIN CONCENTRATION (96 h, time 4 day): 32.5 G/DL | MEAN CORPUSCULAR VOLUME (96 h, time 4 day): 63.9 fL | MONOCYTE (96 h, time 4 day): 2.47% | NEUTROPHIL (96 h, time 4 day): 16.1% | PLATELET COUNT (96 h, time 4 day): 1434.33 x10E3/uL | ALANINE AMINOTRANSFERASE (96 h, time 4 day): 28 u/L | ALBUMIN (96 h, time 4 day): 3.87 G/DL | ALKALINE PHOSPHATASE (96 h, time 4 day): 292 u/L | ASPARTATE AMINOTRANSFERASE (96 h, time 4 day): 63.67 u/L | BLOOD UREA NITROGEN (96 h, time 4 day): 17.67 mg/dL | CARBON DIOXIDE (96 h, time 4 day): 21.67 mmol/L | CHLORIDE (96 h, time 4 day): 108.33 MEQ/L | CHOLESTEROL (96 h, time 4 day): 74.67 mg/dL | CREATINE PHOSPHOKINASE (96 h, time 4 day): 242 u/L | CREATININE (96 h, time 4 day): 0.43 mg/dL | GLUCOSE (96 h, time 4 day): 177 mg/dL | LACTATE DEHYDROGENASE (96 h, time 4 day): 82 u/L | LIPASE (96 h, time 4 day): 19 u/L | PHOSPHORUS (96 h, time 4 day): 11.57 mg/dL | POTASSIUM (96 h, time 4 day): 5.67 MEQ/L | SODIUM (96 h, time 4 day): 150 MEQ/L | TOTAL BILIRUBIN (96 h, time 4 day): 0.23 mg/dL | TOTAL PROTEIN (96 h, time 4 day): 6.5 G/DL | URIC ACID (96 h, time 4 day): 1.17 mg/dL | BASOPHIL ([…], time 6 day): 0.4% | EOSINOPHIL ([…], time 6 day): 0.57% | ERYTHROCYTE COUNT ([…], time 6 day): 7.65 x10E6/uL | HEMATOCRIT ([…], time 6 day): 47.3% | HEMOGLOBIN ([…], time 6 day): 15.03 G/DL | LEUKOCYTE COUNT ([…], time 6 day): 11.09 x10E3/uL | LYMPHOCYTE ([…], time 6 day): 86.53% | MEAN CORPUSCULAR HEMOGLOBIN ([…], time 6 day): 19.67 pg | MEAN CORPUSCULAR HEMOGLOBIN CONCENTRATION ([…], time 6 day): 31.77 G/DL | MEAN CORPUSCULAR VOLUME ([…], time 6 day): 61.9 fL | MONOCYTE ([…], time 6 day): 1.6% | NEUTROPHIL ([…], time 6 day): 10.43% | PLATELET COUNT ([…], time 6 day): 1317.33 x10E3/uL | BASOPHIL ([…], time 14 day): 0.38% | EOSINOPHIL ([…], time 14 day): 1.98% | ERYTHROCYTE COUNT ([…], time 14 day): 8.11 x10E6/uL | HEMATOCRIT ([…], time 14 day): 53.9% | HEMOGLOBIN ([…], time 14 day): 15.78 G/DL | LEUKOCYTE COUNT ([…], time 14 day): 13.93 x10E3/uL | LYMPHOCYTE ([…], time 14 day): 77.98% | MEAN CORPUSCULAR HEMOGLOBIN ([…], time 14 day): 19.5 pg | MEAN CORPUSCULAR HEMOGLOBIN CONCENTRATION ([…], time 14 day): 29.3 G/DL | MEAN CORPUSCULAR VOLUME ([…], time 14 day): 66.52 fL | MONOCYTE ([…], time 14 day): 1.82% | NEUTROPHIL ([…], time 14 day): 17.32% | PLATELET COUNT ([…], time 14 day): 1210 x10E3/uL | ALANINE AMINOTRANSFERASE ([…], time 6 day): 38.33 u/L | ALBUMIN ([…], time 6 day): 3.9 G/DL | ALKALINE PHOSPHATASE ([…], time 6 day): 248.33 u/L | ASPARTATE AMINOTRANSFERASE ([…], time 6 day): 85.33 u/L | BLOOD UREA NITROGEN ([…], time 6 day): 17 mg/dL | CARBON DIOXIDE ([…], time 6 day): 24 mmol/L | CHLORIDE ([…], time 6 day): 109.67 MEQ/L | CHOLESTEROL ([…], time 6 day): 81 mg/dL | CREATINE PHOSPHOKINASE ([…], time 6 day): 545 u/L | CREATININE ([…], time 6 day): 0.33 mg/dL | GLUCOSE ([…], time 6 day): 171.67 mg/dL | LACTATE DEHYDROGENASE ([…], time 6 day): 134.33 u/L | LIPASE ([…], time 6 day): 4.67 u/L | PHOSPHORUS ([…], time 6 day): 12.5 mg/dL | POTASSIUM ([…], time 6 day): 7.1 MEQ/L | SODIUM ([…], time 6 day): 619.67 MEQ/L | TOTAL BILIRUBIN ([…], time 6 day): 0.23 mg/dL | TOTAL PROTEIN ([…], time 6 day): 6.6 G/DL | URIC ACID ([…], time 6 day): 1.57 mg/dL | ALANINE AMINOTRANSFERASE ([…], time 14 day): 49.8 u/L | ALBUMIN ([…], time 14 day): 4.38 G/DL | ALKALINE PHOSPHATASE ([…], time 14 day): 322.6 u/L | ASPARTATE AMINOTRANSFERASE ([…], time 14 day): 75 u/L | BLOOD UREA NITROGEN ([…], time 14 day): 15.6 mg/dL | CARBON DIOXIDE ([…], time 14 day): 27.6 mmol/L | CHLORIDE ([…], time 14 day): 104.8 MEQ/L | CHOLESTEROL ([…], time 14 day): 84.4 mg/dL | CREATINE PHOSPHOKINASE ([…], time 14 day): 289.2 u/L | CREATININE ([…], time 14 day): 0.42 mg/dL | GLUCOSE ([…], time 14 day): 153.6 mg/dL | LACTATE DEHYDROGENASE ([…], time 14 day): 57.2 u/L | LIPASE ([…], time 14 day): 7.2 u/L | PHOSPHORUS ([…], time 14 day): 13.42 mg/dL | POTASSIUM ([…], time 14 day): 6.7 MEQ/L | SODIUM ([…], time 14 day): 151.4 MEQ/L | TOTAL BILIRUBIN ([…], time 14 day): 0.34 mg/dL | TOTAL PROTEIN ([…], time 14 day): 7.08 G/DL | URIC ACID ([…], time 14 day): 1.5 mg/dL
